Measurements reported in patent US9096591B2, “Tetracyclic compounds” (Medivation Technologies, Inc., priority 2007, dated 2015).
Where two headings read alike, the source gives them in different places.

Columns and labels:
[1] = target: T1, human recombinant adrenergic α2B receptor (Homo sapiens, UniProt P18089); test: Adrenergic α2B radioligand binding ([3H]Rauwolscine); set-up: Inhibition of ligand binding, Adren. alpha2B: concentration or dose not given beside the values; settings: percent inhibition of specific binding
T1 construct: expressed in transfected cells; host or cells: CHO-K1 cells
T1 sequence (P18089 1-450): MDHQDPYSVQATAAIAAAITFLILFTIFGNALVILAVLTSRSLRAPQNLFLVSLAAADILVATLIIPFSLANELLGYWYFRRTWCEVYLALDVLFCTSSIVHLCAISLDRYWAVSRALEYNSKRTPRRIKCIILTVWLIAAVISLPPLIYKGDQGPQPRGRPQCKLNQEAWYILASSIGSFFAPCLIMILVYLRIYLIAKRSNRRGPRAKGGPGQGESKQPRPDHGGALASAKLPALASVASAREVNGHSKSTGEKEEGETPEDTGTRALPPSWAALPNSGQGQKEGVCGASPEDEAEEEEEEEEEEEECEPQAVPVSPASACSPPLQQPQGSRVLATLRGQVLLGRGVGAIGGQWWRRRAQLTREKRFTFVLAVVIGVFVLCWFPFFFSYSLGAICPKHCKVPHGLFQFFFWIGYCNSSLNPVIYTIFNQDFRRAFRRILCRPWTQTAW
Procedure: To evaluate in radioligand binding assays the activity of compounds of the invention, human recombinant adrenergic α2B receptor expressed in Chinese hamster ovary (CHO-K1) cells (Uhlen S et al. Eur J. Pharmacol. 343(1):93, 1998) in a modified Tris-HCl buffer (50 mM Tris-HCl, pH 7.4, 12.5 mM MgCl2, 1 mM EDTA, 0.2% BSA) was used. Compounds of the invention were incubated with 2.5 nM [^3H]Rauwolscine for 60 minutes at 25° C. Non-specific binding was estimated in the presence of 10 μM Prozosin. Receptor proteins were filtered and washed, the filters were then counted to determine [^3H]Rauwolscine specifically bound. […] Biochemical assay results are presented as the percent inhibition of specific binding in Table 6.

[2] = target: T2, human recombinant histamine H1 receptor (Homo sapiens, UniProt P35367); test: Histamine H1 radioligand binding ([3H]Pyrilamine); settings: for inhibition at 0.03 µM: 0.03 μM compound; for inhibition at 0.1 µM: 0.1 μM compound
T2 construct: expressed in transfected cells; host or cells: CHO cells
Procedure: To evaluate in radioligand binding assays the activity of compounds of the invention, human recombinant histamine H1 receptor expressed in Chinese hamster ovary (CHO) cells (De Backer M D et al. Biochem. Biophys. Res Comm. 197(3):1601, 1993) in a modified Tris-HCl buffer (50 mM Tris-HCl, pH 7.4, 2 mM MgCl2, 100 mM NaCl, 250 mM Sucrose) were used. […] Non-specific binding was estimated in the presence of 1 μM pyrilamine. Receptor proteins were filtered and washed, the filters were then counted to determine [^3H]pyrilamine specifically bound. […] Biochemical assay results are presented as the percent inhibition of specific binding in Table 5.
To evaluate in radioligand binding assays the activity of compounds of the invention, human recombinant histamine H1 receptor expressed in Chinese hamster ovary (CHO) cells (De Backer, M. D. et al., Biochem. Biophys. Res. Comm. 197(3):1601, 1993) in a modified Tris-HCl buffer (50 mM Tris-HCl, pH 7.4, 2 mM MgCl2, 100 mM NaCl, 250 mM Sucrose) was used. […] Non-specific binding was estimated in the presence of 1 μM pyrilamine. Receptor proteins were filtered and washed, the filters were then counted to determine [^3H]Pyrilamine specifically bound. Compounds were screened at 1 μM, using 1% DMSO as vehicle. Biochemical assay results are presented as the percent inhibition of specific binding in Table 6.

[3] = target: T3, human recombinant serotonin (5-Hydroxytryptamine) 5-HT6 receptor (Homo sapiens, UniProt P50406); test: Serotonin 5-HT6 radioligand binding ([3H]LSD); set-up: Inhibition of ligand binding, Ser. 5-HT6: concentration or dose not given beside the values; settings: percent inhibition of specific binding
T3 construct: expressed in transfected cells; host or cells: human HeLa cells
From the text: Receptor proteins were filtered and washed, the filters were then counted to determine [3H]LSD specifically bound. […] Biochemical assay results are presented as the percent inhibition of specific binding in Table 6.

[4] = target: T4, human recombinant adrenergic α2A receptor (Homo sapiens, UniProt P08913); test: Adrenergic α2A radioligand binding ([3H]MK-912); set-up: Inhibition of ligand binding, Adren. alpha2A: concentration or dose not given beside the values; settings: percent inhibition of specific binding
T4 construct: expressed in transfected cells; host or cells: insect Sf9 cells
T4 sequence (P08913 1-465): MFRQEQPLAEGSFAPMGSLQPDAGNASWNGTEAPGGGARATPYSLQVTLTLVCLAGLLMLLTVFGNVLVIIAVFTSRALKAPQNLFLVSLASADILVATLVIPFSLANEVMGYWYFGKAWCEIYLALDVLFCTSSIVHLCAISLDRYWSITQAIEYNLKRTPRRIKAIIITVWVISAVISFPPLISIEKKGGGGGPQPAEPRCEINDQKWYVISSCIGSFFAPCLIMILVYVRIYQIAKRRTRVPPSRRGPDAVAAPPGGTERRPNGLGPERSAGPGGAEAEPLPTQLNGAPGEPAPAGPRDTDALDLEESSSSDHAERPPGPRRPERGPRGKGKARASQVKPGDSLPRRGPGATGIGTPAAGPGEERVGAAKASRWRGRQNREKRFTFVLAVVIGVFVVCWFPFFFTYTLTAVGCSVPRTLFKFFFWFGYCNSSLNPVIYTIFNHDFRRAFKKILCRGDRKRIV
Procedure: To evaluate in radioligand binding assays the activity of compounds of the invention, human recombinant adrenergic α2A receptor expressed in insect Sf9 cells (Uhlen S et al. J Pharmacol Exp Ther. 271:1558, 1994) in a modified Tris-HCl buffer (50 mM Tris-HCl, pH 7.4, 12.5 mM MgCl2, 2 mM EDTA) was used. Compounds of invention were incubated with 1 nM [^3H]MK-912 for 60 minutes at 25° C. MK912 is (2S-trans)-1,3,4,5′,6,6′,7,12b-octahydro-1′,3′-dimethyl-spiro[2H-benzofuro[2,3-a]quinolizine-2,4′(1′H)-pyrimidin]-2′(3′H)-one hydrochloride Non-specific binding was estimated in the presence of 10 μM WB-4101 (2-(2,6-Dimethoxyphenoxyethyl)aminomethyl-1,4-benzodioxane hydrochloride). Receptor proteins were filtered and washed, the filters were then counted to determine [^3H]MK-912 specifically bound. […] Biochemical assay results are presented as the percent inhibition of specific binding in Table 6.

[5] = 1 μM compound, […] [3H]Pyrilamine, read-out: Histamine Binding H1, percent inhibition of specific binding
[6] = percent inhibition of specific binding, screened at 1 μM, read-out: Inhibition of ligand binding, Hist. H1
[7] = […] [3H]Pyrilamine, read-out: Histamine Binding H1, percent inhibition of specific binding

T2 sequence (P35367 whole entry): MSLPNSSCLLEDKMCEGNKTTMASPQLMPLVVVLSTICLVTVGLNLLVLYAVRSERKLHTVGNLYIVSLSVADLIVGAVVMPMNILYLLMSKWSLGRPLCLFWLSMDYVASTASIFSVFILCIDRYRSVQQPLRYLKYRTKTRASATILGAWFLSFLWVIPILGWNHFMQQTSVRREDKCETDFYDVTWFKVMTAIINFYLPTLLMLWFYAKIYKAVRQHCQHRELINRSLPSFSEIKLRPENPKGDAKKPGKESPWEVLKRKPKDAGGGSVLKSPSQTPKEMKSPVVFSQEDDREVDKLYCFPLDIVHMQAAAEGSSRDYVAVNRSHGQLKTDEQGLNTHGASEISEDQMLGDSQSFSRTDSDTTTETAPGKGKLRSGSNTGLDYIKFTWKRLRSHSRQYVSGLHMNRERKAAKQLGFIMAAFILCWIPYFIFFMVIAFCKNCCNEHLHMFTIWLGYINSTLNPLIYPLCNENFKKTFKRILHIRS
T3 sequence (P50406 whole entry): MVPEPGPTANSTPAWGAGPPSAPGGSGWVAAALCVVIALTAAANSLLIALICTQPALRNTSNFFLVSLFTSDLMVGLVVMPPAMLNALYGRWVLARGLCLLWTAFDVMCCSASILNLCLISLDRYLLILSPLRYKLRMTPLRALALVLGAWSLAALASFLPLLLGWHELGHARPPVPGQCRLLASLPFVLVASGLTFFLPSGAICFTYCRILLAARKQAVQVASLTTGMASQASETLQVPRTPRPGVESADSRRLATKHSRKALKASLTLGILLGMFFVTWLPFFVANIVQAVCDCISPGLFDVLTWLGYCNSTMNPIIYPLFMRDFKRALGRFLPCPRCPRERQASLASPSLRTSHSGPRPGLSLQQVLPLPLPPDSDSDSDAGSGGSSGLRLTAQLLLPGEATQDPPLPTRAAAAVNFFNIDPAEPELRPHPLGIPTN

## CCN1CCc2c(c3ccccc3n2CCc2ccc(C)cc2)C1 [Compound 3, 2-ethyl-2,3,4,5-tetrahydro-5-(4-methylphenethyl)-1H-pyrido[4,3-b]indole]
[1]
  Inhibition of ligand binding, Adren. alpha2B: 102%
[2]; [5]
  inhibition at 1 µM: 88%
[2]; [6]
  inhibition at 1 µM: 88%
[3]
  Inhibition of ligand binding, Ser. 5-HT6: 40%
[4]
  Inhibition of ligand binding, Adren. alpha2A: 86%

## CCN1CCc2c(c3ccccc3n2CCc2ccccc2)C1 [Compound 4, 2-ethyl-2,3,4,5-tetrahydro-5-phenethyl-1H-pyrido[4,3-b]indole]
[1]
  Inhibition of ligand binding, Adren. alpha2B: 106%
[2]; [7]
  inhibition at 0.03 µM: 47%
  inhibition at 0.1 µM: 73%
[2]; [5]
  inhibition at 1 µM: 93%
[2]; [6]
  inhibition at 1 µM: 93%
[3]
  Inhibition of ligand binding, Ser. 5-HT6: 82%
[4]
  Inhibition of ligand binding, Adren. alpha2A: 82%

## CCN1CCc2c(c3ccccc3n2CCc2ccncc2)C1 [Compound 5]
[1]
  Inhibition of ligand binding, Adren. alpha2B: 78%
[2]; [5]
  inhibition at 1 µM: 82%
[2]; [6]
  inhibition at 1 µM: 82%
[3]
  Inhibition of ligand binding, Ser. 5-HT6: 1%
[4]
  Inhibition of ligand binding, Adren. alpha2A: 20%

## CCN1CCc2c(c3ccccc3n2CCc2ccccn2)C1 [Compound 6]
[1]
  Inhibition of ligand binding, Adren. alpha2B: 54%
[2]; [5]
  inhibition at 1 µM: 32%
[2]; [6]
  inhibition at 1 µM: 32%
[3]
  Inhibition of ligand binding, Ser. 5-HT6: 7%
[4]
  Inhibition of ligand binding, Adren. alpha2A: 20%

## CN1CCc2c(c3ccccc3n2CCc2ccncc2)C1 [Compound 10, 2,3,4,5-tetrahydro-2-methyl-5-(2-(pyridin-4-yl)ethyl)-1H-pyrido[4,3-b]indole]
[1]
  Inhibition of ligand binding, Adren. alpha2B: 92%
[2]; [5]
  inhibition at 1 µM: 88%
[2]; [6]
  inhibition at 1 µM: 88%
[3]
  Inhibition of ligand binding, Ser. 5-HT6: 32%
[4]
  Inhibition of ligand binding, Adren. alpha2A: 33%

## CCN1CCc2c(c3ccccc3n2Cc2ccccc2)C1 [Compound 16, 5-benzyl-2-ethyl-2,3,4,5-tetrahydro-1H-pyrido[4,3-b]indole]
[1]
  Inhibition of ligand binding, Adren. alpha2B: 10%
[2]; [5]
  inhibition at 1 µM: 10%
[2]; [6]
  inhibition at 1 µM: 10%
[3]
  Inhibition of ligand binding, Ser. 5-HT6: 6%
[4]
  Inhibition of ligand binding, Adren. alpha2A: 10%

## Cc1ccc(Cn2c3c(c4ccccc42)CN(C)CC3)cn1 [Compound 17, 2,3,4,5-tetrahydro-2-methyl-5-((6-methylpyridin-3-yl)methyl)-1H-pyrido[4,3-b]indole]
[1]
  Inhibition of ligand binding, Adren. alpha2B: 9%
[2]; [5]
  inhibition at 1 µM: 15%
[2]; [6]
  inhibition at 1 µM: 15%
[3]
  Inhibition of ligand binding, Ser. 5-HT6: 0%
[4]
  Inhibition of ligand binding, Adren. alpha2A: 56%

## Cc1ccc2c(c1)c1c(n2CCc2ccccn2)CCN(C)C1 [Compound 21, 2,3,4,5-tetrahydro-2,8-dimethyl-5-(2-(pyridin-2-yl)ethyl)-1H-pyrido[4,3-b]indole]
[1]
  Inhibition of ligand binding, Adren. alpha2B: 114%
[2]; [5]
  inhibition at 1 µM: 79%
[2]; [6]
  inhibition at 1 µM: 79%
[3]
  Inhibition of ligand binding, Ser. 5-HT6: 79%

## CCN1CCc2c(c3cc(C)ccc3n2CCc2ccccn2)C1 [Compound 23, 2-ethyl-2,3,4,5-tetrahydro-8-methyl-5-(2-(pyridin-2-yl)ethyl)-1H-pyrido[4,3-b]indole]
[1]
  Inhibition of ligand binding, Adren. alpha2B: 97%
[2]; [5]
  inhibition at 1 µM: 69%
[2]; [6]
  inhibition at 1 µM: 69%
[3]
  Inhibition of ligand binding, Ser. 5-HT6: 47%
[4]
  Inhibition of ligand binding, Adren. alpha2A: 57%

## CCN1CCc2c(c3cc(C)ccc3n2CCc2ccncc2)C1 [Compound 27, 2-ethyl-2,3,4,5-tetrahydro-8-methyl-5-(2-(pyridin-4-yl)ethyl)-1H-pyrido[4,3-b]indole]
[1]
  Inhibition of ligand binding, Adren. alpha2B: 100%
[2]; [7]
  inhibition at 0.03 µM: 58%
  inhibition at 0.1 µM: 77%
[2]; [5]
  inhibition at 1 µM: 99%
[2]; [6]
  inhibition at 1 µM: 99%
[3]
  Inhibition of ligand binding, Ser. 5-HT6: 38%
[4]
  Inhibition of ligand binding, Adren. alpha2A: 53%

## CCN1CCc2c(c3cc(C)ccc3n2CCc2ccc(C)nc2)C1 [Compound 31, 2-ethyl-2,3,4,5-tetrahydro-8-methyl-5-(2-(6-methylpyridin-3-yl)ethyl)-1H-pyrido[4,3-b]indole]
[1]
  Inhibition of ligand binding, Adren. alpha2B: 91%
[2]; [5]
  inhibition at 1 µM: 100%
[2]; [6]
  inhibition at 1 µM: 100%
[3]
  Inhibition of ligand binding, Ser. 5-HT6: 64%
[4]
  Inhibition of ligand binding, Adren. alpha2A: 66%

## CN1CCc2c(c3cc(I)ccc3n2CCc2ccccc2F)C1 [Compound 89, 5-(2-fluorophenethyl)-2,3,4,5-tetrahydro-8-iodo-2-methyl-1H-pyrido[4,3-b]indole]
[1]
  Inhibition of ligand binding, Adren. alpha2B: 116%
[2]; [5]
  inhibition at 1 µM: 97%
[2]; [6]
  inhibition at 1 µM: 97%
[3]
  Inhibition of ligand binding, Ser. 5-HT6: 103%
[4]
  Inhibition of ligand binding, Adren. alpha2A: 98%

## Cc1ccc2c(c1)c1c(n2Cc2ccccc2)CCN(C)C1 [Compound 137, 5-benzyl-2,3,4,5-tetrahydro-2,8-dimethyl-1H-pyrido[4,3-b]indole]
[1]
  Inhibition of ligand binding, Adren. alpha2B: 3%
[2]; [5]
  inhibition at 1 µM: 11%
[2]; [6]
  inhibition at 1 µM: 11%
[3]
  Inhibition of ligand binding, Ser. 5-HT6: 12%
[4]
  Inhibition of ligand binding, Adren. alpha2A: 15%

## CCN1CCc2c(c3cc(C)ccc3n2Cc2ccc(C)nc2)C1 [Compound 138, 2-ethyl-2,3,4,5-tetrahydro-8-methyl-5-((6-methylpyridin-3-yl)methyl)-1H-pyrido[4,3-b]indole]
[1]
  Inhibition of ligand binding, Adren. alpha2B: 19%
[2]; [5]
  inhibition at 1 µM: 68%
[2]; [6]
  inhibition at 1 µM: 68%
[3]
  Inhibition of ligand binding, Ser. 5-HT6: 22%
[4]
  Inhibition of ligand binding, Adren. alpha2A: 31%

## Cc1ccc2c(c1)c1c(n2Cc2ccc(C)nc2)CCN(C)C1 [Compound 139, 2,3,4,5-tetrahydro-2,8-dimethyl-5-((6-methylpyridin-3-yl)methyl)-1H-pyrido[4,3-b]indole]
[1]
  Inhibition of ligand binding, Adren. alpha2B: 52%
[2]; [5]
  inhibition at 1 µM: 81%
[2]; [6]
  inhibition at 1 µM: 74%
[3]
  Inhibition of ligand binding, Ser. 5-HT6: 39%
[4]
  Inhibition of ligand binding, Adren. alpha2A: 50%
